≈ marks a conversion by molar mass, not a printed value.
Tests used:
Type in all cases: cell-based
[1] = test system: Bacillus cereus (ATCC 11778); experiment: MIC susceptibility test, microdilution with MTT readout; settings: for MIC BC: Bacillus ceres ATCC11778; for MIC: Bacillus cereus, ATCC11778, read-out: MIC BC
Procedure: (§1) Evaluation of vancomycin analogs is performed using in vitro susceptibility tests and a time-kill assay. [NCCL Standard, 1993] In susceptibility tests, five strains of bacteria, two of the most important: Staphylococcus aureus and Enterococcus faecalis (both susceptible and resistant strains), and Bacillus cereus are chosen and bacteria viability remaining in each well is evaluated using a colorimetric assay based on the tetrazolium salt 3-(4,5-dimethyl-2-thiazolyl)-2,5-diphenyl-2H tetrazolium bromide (MTT) and minimum inhibitory concentration (MIC) values are determined as μg/mL. [Mosmann, T. (1983); Damour, O., et al. (1992); Mikami, Y., et al. (1994)] This assay gives susceptibility information quickly, efficiently, and clearly.
(§2) All strains [Bacillus cereus (ATCC® 11778), Staphylococcus aureus (ATCC® 29213), Methicillin resistant Staphylococcus aureus (ATCC® 33591), Enterococcus faecalis (ATCC® 29212), and gentamicin, streptmycin, vancomycin resistant Enterococcus faecalis (ATCC® 51299), are purchased from REMEL (Lenexa, Kans.).
(§3) MICs are determined by the microdilution method using 96-well microplates. Samples are suspended with Cation Adjusted (20 to 25 mg of Ca^2+/mL and 10 to […] of Mg^2+) Mueller-Hinton broth (Difco Laboratories, Detroit, Mich.) and are two-fold diluted from 5 μg/mL to […] on microplates (12 step dilution). To each well, which contained 100 μL of cell suspension (10^6 CFU/mL), 100 μL of antibiotic solution is added and the plates are incubated at 37° C. for 24 h. 50 μL of MTT solution (1 mg/mL) is added to each well, then the plates are incubated under the same conditions (incubation time; 30 min for Bacillus cereus, Staphylococcus aureus, and Methicillin resistant Staphylococcus aureus; 2 hours for Enterococcus faecalis and Gentamicin, Streptmycin, Vancomycin Enterococcus faecalis). MTT is a yellow tetrazolium salt that is reduced by mitochondrial enzymes in viable cells to an insoluble blue formazan product. MIC values are evaluated by observing the lowest drug concentration to inhibit bacteria growth.

[2] = test system: Enterococcus faecalis (ATCC 29212); experiment: as above; settings: Enterococcus faecalis ATCC29212; for MIC: read-out: MIC EF
Procedure: as §1, §2, §3

[3] = test system: Methicillin resistant Staphylococcus aureus (ATCC 33591); experiment: as above; settings: Staphylococcus aureus ATCC3359, Methicillin resistance; for MIC: ATCC 3359 / ATCC 33591 / MRSA, read-out: MIC MRSA
Procedure: as §1, §2, §3

[4] = test system: Staphylococcus aureus (ATCC 29213); experiment: as above; settings: Staphylococcus aureus ATCC29213; for MIC: read-out: MIC SA
Procedure: as §1, §2, §3

[5] = test system: gentamicin, streptmycin, vancomycin resistant Enterococcus faecalis (ATCC 51299); experiment: microbe, parasite or virus in culture; settings: for MIC VREF: Enterococcus faecalis ATCC51299, vancomycin resistance; for MIC: Enterococcus faecalis, ATCC51299, read-out: MIC VREF
Procedure: as §1, §2, §3

[6] = test system: Enterococcus faecium CL5137, VanA; experiment: MIC susceptibility test; settings: Enterococcus faecium CL5137, VanA; for MIC: read-out: MIC CL5137
[7] = test system: Enterococcus faecalis CL5244, VanB; experiment: MIC susceptibility test; settings: Enterococcus faecalis CL5244, VanB; for MIC: read-out: MIC CL5244
Procedure: as §1, §3

Structure (SMILES)	MIC BC [1] [µg/mL]	MIC EF [2] [µg/mL]	MIC MRSA [3] [µg/mL]	MIC SA [4] [µg/mL]	MIC VREF [5]	MIC CL5137 [6]	MIC CL5244 [7]	MIC [1] [µg/mL]	MIC [2] [µg/mL]	MIC [3] [µg/mL]	MIC [4] [µg/mL]	MIC [5] [µg/mL]	MIC [6] [µg/mL]	MIC [7] [µg/mL]
CCCCCCCCCCNC1(C)CC(OC2C(Oc3c4cc5cc3Oc3ccc(cc3Cl)C(O)C3NC(=O)C(NC(=O)C5NC(=O)C(CC(N)=O)NC(=O)C(NC(=O)C(CC(C)C)NC)C(O)c5ccc(c(Cl)c5)O4)c4ccc(O)c(c4)-c4c(O)cc(O)cc4C(C(=O)O)NC3=O)OC(CNCc3ccc(-c4ccc(Cl)cc4)o3)C(O)C2O)OC(C)C1O (stereo not shown) [XLIX, Glucose-C6-N-5-(4-chlorophenyl)furan-1-methylene-vancosamine-N-decyl Vancomycin]	3.8 (≈ 2.14 µM)	1.9 (≈ 1.07 µM)	2.5 (≈ 1.41 µM)	5.0 (≈ 2.81 µM)	1.3 µg/mL (≈ 0.731 µM)	13 µg/mL (≈ 7.31 µM)	0.8 µg/mL (≈ 0.45 µM)							
CCCCCCCCCCNC1(C)CC(OC2C(Oc3c4cc5cc3Oc3ccc(cc3Cl)C(O)C3NC(=O)C(NC(=O)C5NC(=O)C(CC(N)=O)NC(=O)C(NC(=O)C(CC(C)C)NC)C(O)c5ccc(c(Cl)c5)O4)c4ccc(O)c(c4)-c4c(O)cc(O)cc4C(C(=O)O)NC3=O)OC(CO)C(O)C2O)OC(C)C1O (stereo not shown) [N-decyl vancosamine vancomycin, reference compound]	0.32 (≈ 0.201 µM)	0.16 (≈ 0.101 µM)	0.48 (≈ 0.302 µM)	0.63 (≈ 0.396 µM)	0.32 µg/mL (≈ 0.201 µM)	25 µg/mL (≈ 15.7 µM)	3.2 µg/mL (≈ 2.01 µM)							
CNC(CC(C)C)C(=O)NC1C(=O)NC(CC(N)=O)C(=O)NC2C(=O)NC3C(=O)NC(C(=O)NC(C(=O)O)c4cc(O)cc(O)c4-c4cc3ccc4O)C(O)c3ccc(c(Cl)c3)Oc3cc2cc(c3OC2OC(CN=P(c3ccccc3)(c3ccccc3)c3ccccc3)C(O)C(O)C2OC2CC(C)(NCc3ccc(-c4ccc(Cl)cc4)cc3)C(O)C(C)O2)Oc2ccc(cc2Cl)C1O.O=C(O)C(F)(F)F (stereo not shown) [CXXXVI, N-4-(4-Chlorophenyl)benzyl Vancosamine-glucose-C6-iminotriphenylphosphorane Vancomycin]	1.3	0.32	0.32	1.3	0.16 µg/mL	5.0 µg/mL	0.32 µg/mL							
CN[C@@H](CC(C)C)C(=O)N[C@H]1C(=O)N[C@@H](CC(N)=O)C(=O)N[C@H]2C(=O)NC3C(=O)N[C@H](C(=O)N[C@@H](C(=O)O)c4cc(O)cc(O)c4-c4cc3ccc4O)[C@H](O)c3ccc(c(Cl)c3)Oc3cc2cc(c3OC2OC(CSc3nccc(N)n3)C(O)C(O)C2OC2CC(C)(N)C(O)C(C)O2)Oc2ccc(cc2Cl)[C@H]1O (stereo partly shown) [LXI, Glucose-C6-2-thio-4-aminopyrimidine Vancomycin]								0.63 (≈ 0.404 µM)	0.63 (≈ 0.404 µM)	1.3 (≈ 0.834 µM)	0.63 (≈ 0.404 µM)	0.63 (≈ 0.404 µM)	> 50	3.2 (≈ 2.05 µM)
CN[C@@H](CC(C)C)C(=O)N[C@H]1C(=O)N[C@@H](CC(N)=O)C(=O)N[C@H]2C(=O)NC3C(=O)N[C@H](C(=O)N[C@@H](C(=O)O)c4cc(O)cc(O)c4-c4cc3ccc4O)[C@H](O)c3ccc(c(Cl)c3)Oc3cc2cc(c3OC2OC(CSc3nccc(C(F)(F)F)n3)C(O)C(O)C2OC2CC(C)(N)C(O)C(C)O2)Oc2ccc(cc2Cl)[C@H]1O (stereo partly shown) [LX]								5 (≈ 3.1 µM)	2.5 (≈ 1.55 µM)	5 (≈ 3.1 µM)	5 (≈ 3.1 µM)	2.5 (≈ 1.55 µM)	> 50	> 50
CNC(CC(C)C)C(=O)NC1C(=O)NC(CC(N)=O)C(=O)NC2C(=O)NC3C(=O)NC(C(=O)NC(C(=O)O)c4cc(O)cc(O)c4-c4cc3ccc4O)C(O)c3ccc(c(Cl)c3)Oc3cc2cc(c3OC2OC(CSc3cccc(Cl)c3)C(O)C(O)C2OC2CC(C)(N)C(O)C(C)O2)Oc2ccc(cc2Cl)C1O (stereo not shown) [LV, Glucose-C6-3-chlorothiophenyl Vancomycin]	0.63 (≈ 0.4 µM)	0.63 (≈ 0.4 µM)	0.32 (≈ 0.203 µM)	0.48 (≈ 0.305 µM)	0.63 µg/mL (≈ 0.4 µM)	50< μg/mL	3.2 µg/mL (≈ 2.03 µM)							
CCCCCCCCCCNC1(C)CC(OC2C(Oc3c4cc5cc3Oc3ccc(cc3Cl)[C@@H](O)[C@@H](NC(=O)[C@H](CC(C)C)NC)C(=O)N[C@@H](CC(N)=O)C(=O)N[C@H]5C(=O)NC3C(=O)N[C@H](C(=O)N[C@@H](C(=O)O)c5cc(O)cc(O)c5-c5cc3ccc5O)[C@H](O)c3ccc(c(Cl)c3)O4)OC(CSc3nc4cc(Cl)ccc4s3)C(O)C2O)OC(C)C1O (stereo partly shown) [LXXX, N-Decylvancosamine-glucose-C6-2-thio-5-chlorobenzothiazole Vancomycin]								5 (≈ 2.82 µM)	1.3 (≈ 0.733 µM)	5 (≈ 2.82 µM)	> 5	2.5 (≈ 1.41 µM)	50 (≈ 28.2 µM)	2.4 (≈ 1.35 µM)
CNC(CC(C)C)C(=O)NC1C(=O)NC(CC(N)=O)C(=O)NC2C(=O)NC3C(=O)NC(C(=O)NC(C(=O)O)c4cc(O)cc(O)c4-c4cc3ccc4O)C(O)c3ccc(c(Cl)c3)Oc3cc2cc(c3OC2OC(CNC(=O)c3ccc(-c4ccc(Cl)cc4)cc3)C(O)C(O)C2OC2CC(C)(N)C(O)C(C)O2)Oc2ccc(cc2Cl)C1O (stereo not shown) [XXXVIII, Glucose-C6-N-4-(4-chlorophenyl)benzoyl Vancomycin]	0.32 (≈ 0.192 µM)	0.32 (≈ 0.192 µM)	0.63 (≈ 0.379 µM)	1.0 (≈ 0.601 µM)	0.16 µg/mL (≈ 0.0962 µM)	50< μg/mL	0.4 µg/mL (≈ 0.241 µM)							
CN[C@@H](CC(C)C)C(=O)N[C@H]1C(=O)N[C@@H](CC(N)=O)C(=O)N[C@H]2C(=O)NC3C(=O)N[C@H](C(=O)N[C@@H](C(=O)O)c4cc(O)cc(O)c4-c4cc3ccc4O)[C@H](O)c3ccc(c(Cl)c3)Oc3cc2cc(c3OC2OC(CSc3nc(N)cc(O)n3)C(O)C(O)C2OC2CC(C)(N)C(O)C(C)O2)Oc2ccc(cc2Cl)[C@H]1O (stereo partly shown) [LXIII, Glucose-C6-2-thio-4-amino-6-hydroxypyrimidine Vancomycin]								5 (≈ 3.18 µM)	2.5 (≈ 1.59 µM)	> 5	5 (≈ 3.18 µM)	> 5	> 50	6.3 (≈ 4 µM)
CCCCCCCCCCNC1(C)CC(OC2C(Oc3c4cc5cc3Oc3ccc(cc3Cl)C(O)C3NC(=O)C(NC(=O)C5NC(=O)C(CC(N)=O)NC(=O)C(NC(=O)C(CC(C)C)NC)C(O)c5ccc(c(Cl)c5)O4)c4ccc(O)c(c4)-c4c(O)cc(O)cc4C(C(=O)O)NC3=O)OC(CI)C(O)C2O)OC(C)C1O (stereo not shown) [Vancosamine-N-decyl-glucose-C6-iodo-vancomycin]	1.0 (≈ 0.588 µM)	0.08 (≈ 0.0471 µM)	0.32 (≈ 0.188 µM)	1.3 (≈ 0.765 µM)	0.12 µg/mL (≈ 0.0706 µM)	6.3 µg/mL (≈ 3.71 µM)	0.4< μg/mL							
CCCCCCCCCCNC1(C)CC(OC2C(Oc3c4cc5cc3Oc3ccc(cc3Cl)[C@@H](O)[C@@H](NC(=O)[C@H](CC(C)C)NC)C(=O)N[C@@H](CC(N)=O)C(=O)N[C@H]5C(=O)NC3C(=O)N[C@H](C(=O)N[C@@H](C(=O)O)c5cc(O)cc(O)c5-c5cc3ccc5O)[C@H](O)c3ccc(c(Cl)c3)O4)OC(CSc3nnc(C)c(O)n3)C(O)C2O)OC(C)C1O (stereo partly shown) [LXXIX, N-Decylvancosamine-glucose-C6-2-thio-6-azathymine Vancomycin]								0.63 (≈ 0.367 µM)	0.32 (≈ 0.187 µM)	1.3 (≈ 0.758 µM)	2.5 (≈ 1.46 µM)	0.63 (≈ 0.367 µM)	25 (≈ 14.6 µM)	0.6 (≈ 0.35 µM)
CNC(CC(C)C)C(=O)NC1C(=O)NC(CC(N)=O)C(=O)NC2C(=O)NC3C(=O)NC(C(=O)NC(C(=O)O)c4cc(O)cc(O)c4-c4cc3ccc4O)C(O)c3ccc(c(Cl)c3)Oc3cc2cc(c3OC2OC(CNC(=O)CN)C(O)C(O)C2OC2CC(C)(N)C(O)C(C)O2)Oc2ccc(cc2Cl)C1O (stereo not shown) [XXXIV, Glucose-C6-N-(glycine-carboxamide) Vancomycin]	5.0 (≈ 3.32 µM)	2.5 (≈ 1.66 µM)	2.5 (≈ 1.66 µM)	1.9 (≈ 1.26 µM)	5.0< μg/mL									

From US6710168B1, “Glycopeptide antibiotics, combinatorial libraries of glycopeptide antibiotics and methods of producing same” (The Trustees of the University of Princeton, priority 1999, dated 2004)
